Active and inactive are the calls of the source. No cut-off for these calls is given here.
Experiments:
HepG2 = assay: Antiproliferative activity against human HepG2 cells expressing KRAS assessed as inhibition of cell growth incubated for 72 hrs by CCK-8 assay; format: functional, cell-based; settings: HepG2, 72 h
ASPC1 = assay: Antiproliferative activity against human ASPC1 cells expressing KRAS G12D mutant assessed as inhibition of cell growth incubated for 72 hrs by CCK-8 assay; format: functional, cell-based; settings: ASPC1, 72 h
NCI-H358 [1] = assay: Antiproliferative activity against human NCI-H358 cells expressing KRAS G12C mutant assessed as inhibition of cell growth incubated for 72 hrs by CCK-8 assay; format: functional, cell-based; settings: NCI-H358, 72 h
[2] = Cytotoxicity against HEK293T cells assessed as inhibition of cell growth incubated for 72 hrs by CCK-8 assay; format: toxicity, cell-based, HEK-293T; settings: human
MIA PaCa-2 [3] = assay: Antiproliferative activity against human MIA PaCa-2 cells expressing KRAS G12C mutant assessed as inhibition of cell growth incubated for 72 hrs by CCK-8 assay; format: functional, cell-based; settings: MIA PaCa-2, 72 h
NCI-H23 [4] = assay: Antiproliferative activity against human NCI-H23 cells expressing KRAS G12C mutant assessed as relative cell viability at 100 nM incubated for 72 hrs by CCK-8 assay; format: functional; settings: read-out: Activity
MIA PaCa-2 [5] = assay: Antiproliferative activity against human MIA PaCa-2 cells expressing KRAS G12C mutant assessed as relative cell viability at 100 nM incubated for 72 hrs by CCK-8 assay; format: functional; settings: read-out: Activity
SW837 [6] = assay: Antiproliferative activity against human SW837 cells expressing KRAS G12C mutant assessed as relative cell viability at 100 nM incubated for 72 hrs by CCK-8 assay; format: functional; settings: read-out: Activity
Calu-1 [7] = assay: Antiproliferative activity against human Calu-1 cells expressing KRAS G12C mutant assessed as relative cell viability at 100 nM incubated for 72 hrs by CCK-8 assay; format: functional; settings: read-out: Activity
NCI-H358 [8] = assay: Antiproliferative activity against human NCI-H358 cells expressing KRAS G12C mutant assessed as relative cell viability at 100 nM incubated for 72 hrs by CCK-8 assay; format: functional; settings: read-out: Activity
[9] = Volume of distribution at steady state in ICR mouse at 2 mg/kg, iv measured after 24 hrs by LC-MS/MS analysis; format: ADME, organism-based; settings: in vivo
[10] = AUC (0 to infinity) in ICR mouse at 30 mg/kg, ip measured after 24 hrs by LC-MS/MS analysis; format: ADME, organism-based; settings: in vivo
[11] = Cmax in ICR mouse at 2 mg/kg, iv measured after 24 hrs by LC-MS/MS analysis; format: ADME, organism-based; settings: in vivo
[12] = AUC (0 to infinity) in ICR mouse at 2 mg/kg, iv measured after 24 hrs by LC-MS/MS analysis; format: ADME, organism-based; settings: in vivo
[13] = AUC (0 to t) in ICR mouse at 30 mg/kg, ip measured after 24 hrs by LC-MS/MS analysis; format: ADME, organism-based; settings: in vivo
[14] = Inhibition of PI3K-AKT-mTOR pathway in human NCI-H358 cells assessed as decrease in […] phosphorylation at 100 nM incubated for 6 to 8 days by Western blot analysis; format: cell-based; settings: time 6-8 day
NCI-H358 [15] = assay: Inhibition of RAF-MEK-ERK pathway in human NCI-H358 cells assessed as decrease in ERK phosphorylation at 100 nM incubated for 6 to 8 days by Western blot analysis; format: cell-based; settings: time 6-8 day
[16] = Cmax in ICR mouse at 30 mg/kg, ip measured after 24 hrs by LC-MS/MS analysis; format: ADME, organism-based; settings: in vivo
[17] = AUC (0 to t) in ICR mouse at 2 mg/kg, iv measured after 24 hrs by LC-MS/MS analysis; format: ADME, organism-based; settings: in vivo
[18] = Clearance in ICR mouse at 2 mg/kg, iv measured after 24 hrs by LC-MS/MS analysis; format: ADME, organism-based; settings: in vivo
[19] = Tmax in ICR mouse at 30 mg/kg, ip measured after 24 hrs by LC-MS/MS analysis; format: ADME, organism-based; settings: in vivo
[20] = Inhibition of PI3K-AKT-mTOR pathway in human MIA PaCa-2 cells assessed as decrease in […] phosphorylation at 100 nM incubated for 6 to 8 days by Western blot analysis; format: cell-based; settings: time 6-8 day
[21] = Half life in ICR mouse at 2 mg/kg, iv measured after 24 hrs by LC-MS/MS analysis; format: ADME, organism-based; settings: in vivo
MIA PaCa-2 [22] = assay: Inhibition of RAF-MEK-ERK pathway in human MIA PaCa-2 cells assessed as decrease in ERK phosphorylation at 100 nM incubated for 6 to 8 days by Western blot analysis; format: cell-based; settings: time 6-8 day
[23] = Half life in ICR mouse at 30 mg/kg, ip measured after 24 hrs by LC-MS/MS analysis; format: ADME, organism-based; settings: in vivo
SW837 [24] = assay: Antiproliferative activity against human SW837 cells expressing KRAS G12C mutant assessed as relative cell viability at 50 nM incubated for 72 hrs by CCK-8 assay; format: functional; settings: read-out: Activity
Calu-1 [25] = assay: Antiproliferative activity against human Calu-1 cells expressing KRAS G12C mutant assessed as relative cell viability at 50 nM incubated for 72 hrs by CCK-8 assay; format: functional; settings: read-out: Activity
NCI-H23 [26] = assay: Antiproliferative activity against human NCI-H23 cells expressing KRAS G12C mutant assessed as relative cell viability at 50 nM incubated for 72 hrs by CCK-8 assay; format: functional; settings: read-out: Activity
NCI-H358 [27] = assay: Antiproliferative activity against human NCI-H358 cells expressing KRAS G12C mutant assessed as relative cell viability at 50 nM incubated for 72 hrs by CCK-8 assay; format: functional; settings: read-out: Activity
MIA PaCa-2 [28] = assay: Antiproliferative activity against human MIA PaCa-2 cells expressing KRAS G12C mutant assessed as relative cell viability at 50 nM incubated for 72 hrs by CCK-8 assay; format: functional; settings: read-out: Activity
[29] = system: von Hippel-Lindau disease tumor suppressor/GTPase KRas (Homo sapiens), P01116+P40337 [G12C]; assay: PROTAC activity at VHL/KRAS G12C mutant in human MIA PaCa-2 cells assessed as induction of protein degradation at 10 to 1000 nM incubated for 48 hrs by Western blotting analysis; format: cell-based; settings: dose 10-1000 nM
[30] = system: von Hippel-Lindau disease tumor suppressor/GTPase KRas (Homo sapiens), P01116+P40337 [G12C]; assay: PROTAC activity at VHL/KRAS G12C mutant in human NCI-H358 cells assessed as induction of protein degradation at 10 to 1000 nM incubated for 48 hrs by Western blotting analysis; format: cell-based; settings: dose 10-1000 nM

Q: Which IC50 (HepG2) does the source give for `C=CC(=O)N1CCN(c2nc(=O)n(-c3c(C)ccnc3C(C)C)c3nc(-c4c(F)cccc4OCc4cn(CCCCCC(=O)N[C@H](C(=O)N5C[C@H](O)C[C@H]5C(=O)NCc5ccc(-c6scnc6C)cc5)C(C)(C)C)nn4)c(F)cc23)[C@@H](C)C1` here?
A: Its IC50 is greater than 10000 nM.

Q: And the IC50 (ASPC1)?
A: The IC50 was greater than 10000 nM.

Q: What about the IC50 (NCI-H358 [1]) of the same compound?
A: The IC50 was 289 nM.

Q: What about the IC50 at 72 h [2] of the same compound?
A: The IC50 at 72 h was greater than 10000 nM.

Q: What about the IC50 (MIA PaCa-2 [3]) of the same compound?
A: The IC50 was 481 nM.

Q: Which IC50 (HepG2) does the source give for `C=CC(=O)N1CCN(c2nc(=O)n(-c3c(C)ccnc3C(C)C)c3nc(-c4c(F)cccc4OCCOCCOCC(=O)Nc4cccc5c4CN(C4CCC(=O)NC4=O)C5=O)c(F)cc23)[C@@H](C)C1` (some centres undefined) here?
A: The IC50 was greater than 10000 nM.

Q: And the IC50 (ASPC1)?
A: Its IC50 is greater than 10000 nM.

Q: What about the IC50 (NCI-H358 [1]) of the same compound?
A: Its IC50 is 765 nM.

Q: And the IC50 at 72 h [2]?
A: Its IC50 at 72 h is greater than 10000 nM.

Q: What about the IC50 (MIA PaCa-2 [3]) of the same compound?
A: The IC50 was 690 nM.

Q: For `CCN1CCN(c2ccc(Nc3cc(N(C)C(=O)Nc4c(Cl)c(OC)cc(OC)c4Cl)ncn3)cc2)CC1` [INFIGRATINIB], which viability at 0.1 µM (NCI-H23 [4]) is on record?
A: Its viability at 0.1 µM is 0.89%.

Q: What about the viability at 0.1 µM (MIA PaCa-2 [5]) of the same compound?
A: The viability at 0.1 µM was 0.84%.

Q: And the viability at 0.1 µM (SW837 [6])?
A: The viability at 0.1 µM was 0.85%.

Q: And the viability at 0.1 µM (Calu-1 [7])?
A: Its viability at 0.1 µM is 0.86%.

Q: And the viability at 0.1 µM (NCI-H358 [8])?
A: Its viability at 0.1 µM is 0.88%.

Q: Which results are given for `C=CC(=O)N1CCN(c2nc(=O)n(-c3c(C)ccnc3C(C)C)c3nc(-c4c(O)cccc4F)c(F)cc23)[C@@H](C)C1` [SOTORASIB]?
A: Vdss [9]: 1.62 L/kg; IC50 (HepG2): > 10000 nM; AUC(0-inf) [10]: 9450 ng·h/mL; IC50 (ASPC1): > 10000 nM; Cmax [11]: 863 ng/mL; IC50 (NCI-H358 [1]): 12 nM; IC50 at 72 h [2]: > 10000 nM; AUC [12]: 312 ng·h/mL; AUC(0-t) at 24 h [13]: 9440 ng·h/mL; IC50 (MIA PaCa-2 [3]): 18 nM; inhibition [14]: inactive; inhibition (NCI-H358 [15]): inactive; Cmax [16]: 9840 ng/mL; AUC(0-t) at 24 h [17]: 311 ng·h/mL; clearance [18]: 110 mL/min/kg; Tmax [19]: 15 min; inhibition [20]: inactive; t1/2 [21]: 15.1 min; inhibition (MIA PaCa-2 [22]): inactive; half-life [23]: 238 min

Q: For `Cn1cnc2c(F)c(Nc3ccc(Br)cc3Cl)c(C(=O)NOCCO)cc21` [SELUMETINIB], which viability at 0.05 µM (SW837 [24]) is on record?
A: Its viability at 0.05 µM is 0.73%.

Q: What about the viability at 0.05 µM (Calu-1 [25]) of the same compound?
A: Its viability at 0.05 µM is 0.82%.

Q: What about the viability at 0.05 µM (NCI-H23 [26]) of the same compound?
A: The viability at 0.05 µM was 0.77%.

Q: What about the viability at 0.05 µM (NCI-H358 [27]) of the same compound?
A: Its viability at 0.05 µM is 0.86%.

Q: And the viability at 0.05 µM (MIA PaCa-2 [28])?
A: The viability at 0.05 µM was 0.71%.

Q: What does the source list for `C=CC(=O)N1CCN(c2nc(=O)n(-c3c(C)ccnc3C(C)C)c3nc(-c4c(F)cccc4OCCN4CCN(CCCC(=O)N[C@H](C(=O)N5C[C@H](O)C[C@H]5C(=O)NCc5ccc(-c6scnc6C)cc5)C(C)(C)C)CC4)c(F)cc23)[C@@H](C)C1`?
A: IC50 (HepG2): > 10000 nM; IC50 (ASPC1): > 10000 nM; IC50 (NCI-H358 [1]): 233 nM; IC50 at 72 h [2]: > 10000 nM; IC50 (MIA PaCa-2 [3]): 337 nM

Q: For `C=CC(=O)N1CCN(c2nc(=O)n(-c3c(C)ccnc3C(C)C)c3nc(-c4c(F)cccc4OCC4CCN(CCCC(=O)N[C@H](C(=O)N5CC(O)C[C@H]5C(=O)NCc5ccc(-c6scnc6C)cc5)C(C)(C)C)CC4)c(F)cc23)[C@@H](C)C1` (some centres undefined), which Activity [29] is on record?
A: Its Activity is “inactive”.

Q: And the IC50 (NCI-H358 [1])?
A: Its IC50 is 588 nM.

Q: And the IC50 (MIA PaCa-2 [3])?
A: The IC50 was 278 nM.

Q: And the Activity [30]?
A: Its Activity is “inactive”.

Q: What does the source list for `C=CC(=O)N1CCN(c2nc(=O)n(-c3c(C)ccnc3C(C)C)c3nc(-c4c(F)cccc4OCc4cn(CCCC(=O)N[C@H](C(=O)N5C[C@H](O)C[C@H]5C(=O)NCc5ccc(-c6scnc6C)cc5)C(C)(C)C)nn4)c(F)cc23)[C@@H](C)C1`?
A: IC50 (HepG2): > 10000 nM; IC50 (ASPC1): > 10000 nM; IC50 (NCI-H358 [1]): 368 nM; IC50 at 72 h [2]: > 10000 nM; IC50 (MIA PaCa-2 [3]): 491 nM
